For test [1], the system named is GNS cell lines G144, G166, and G179. It counts as cell-based. The note with it: 10 μM, two days.
The subject of another test is tumor lines (GNS cells). Nature of the test: Validation with compounds from an independent supplier, tumor lines. It is filed as cell-based, human. The note with it: 10 μM, 2 days. Here is the method: (§1) Here, selected compounds from an independent source were applied (2 μM for Tegaserod, 10 μM for all others) to G179 (left), HS 27 (middle) or fetal NS (right).
(§2) We carried out two fully independent screens using G144, G166, and G179, as well as a human fibroblast cell line (HS27). […] We chose Glioma NS cell lines to validate several of the drugs, from each class, using compounds obtained from an independent supplier (FIG. 18D).
(§3) For the drug screen we used the IncucyteHD system (Essen Instruments, USA), which enables simultaneously monitoring of six 96-well microplates. GNS cell lines were plated at 10-20% confluence on 96 well plates (Iwaki) coated with laminin (10 μg/ml for 3 hours). The NCC NIH Chemical Compounds library (http://www.nihclinicalcollection.com/) was added to the plates at a final concentration of 10 μM per compound per well (DMSO 0.1%). Images were captured before and after the addition of the library every half hour for 2.5 days in an automated manner using the Incucyte HD device (Essen Instruments, USA). Relative increase in cell number values were generated for every well using confluence readings obtained at each time-point relative to the starting confluence. For every cell line (G144, G166, G179, and HS27) two independent screens were run. HS27 is a human foreskin fibroblast line (American Type Culture Collection). […] Every well associated with a reduction in cell number within the 5* percentile in at least 3 independent screens was visually inspected.

A further test relates to fetal NS cells. The experiment in a line: Validation with compounds from an independent supplier, fetal NS cells. The note with it: 10 μM, 2 days. It is filed as cell-based, human. Here is the method:
as §1, §2, §3

The next test relates to fibroblast cells (HS27). The experiment in a line: Validation with compounds from an independent supplier, fibroblasts. It is filed as cell-based, human. The note with it: 10 μM, 2 days. The method, then: as §1, §2, §3
For test [2], the system named is human fibroblast cell line (HS27). Nature of the test: Live-cell imaging (IncucyteHD) chemical screen on fibroblast line. It counts as cell-based. The note with it: 10 μM, two days. The method, then:
as §2, §3

For test [3], the system named is GNS cells. The experiment in a line: TUNEL and caspase staining of treated cells. The note with it: treated versus untreated cells. It is filed as cell-based, human. From the text:
FIG. 18E is a set of photomicrographs of cells either untreated or treated with indatraline and stained for TUNEL and caspase.

In test [4] the test system is GNS cells. Nature of the test: GNS cell expansion culture. It counts as cell-based, human. Here is the method:
GNS cell expansion was carried out as described previously for human foetal NS cells (Sun et al., (2008) Mol Cell Neurosci 38, 245-258). Tissue culture flasks were pre-treated with Laminin, 10 μg/ml in PBS, (Sigma), for at least 3 hrs at 37° C. […] GNS cells were routinely grown to confluence, dissociated using Accutase (Sigma), and then split 1:3 to 1:5. Media was replaced with fresh media every 3-5 days. For all routine analysis we typically worked with cells between passage 10 and 20. For freezing, we re-suspended cell pellets in 0.5 ml of 10% DMSO/Media and placed in a −80° C. freezer. For long-term storage, liquid nitrogen was used. […] Fetal NS cells CB541 and CB660 are described by Sun et al., 2008, supra), while hf240, hf286, and hf289 (used in the microarrays) were isolated using similar techniques.

The next test deals with G179 cells. Nature of the test: Astrocyte differentiation on BMP-4 exposure, G179. It counts as cell-based, human. The note with it: BMP-4 10 ng/ml, 7 days. The method, then: (§4) To determine whether GNS cells could respond to inductive signals and generate astrocytes, we exposed cells to BMP-4 or serum. […] This response is similar to that of human fetal NS cells (Sun et al., (2008) Mol Cell Neurosci 38, 245-258). Similar results were seen using serum treatment. […] Thus, while GNS cells retain a capacity to differentiate, the efficiency and lineage choice vary dramatically between each line.
(§5) All differentiation was carried out on laminin-coated plastic, either in 4-well plates (˜0.5-1×10^5 cells/well) (Nunc), or for time-lapse movies using 24-well Imagelock microplates (Essen Instruments). For oligodendrocytes and neuronal differentiation we used the same basal media but lacking EGF or FGF-2 (i.e., growth factor withdrawal). For astrocyte differentiation, we supplemented basal media with either BMP at 10 ng/ml (R and D systems), or 1% serum (Sigma). In each case, cells were washed twice with PBS or minimal media before adding the final differentiation media. Samples were processed for immunocytochemistry, typically 7-10 days later.
(§6) Cells w ere fixed in 4% PFA for 10 min and then washed with PBS+0.1% TritonX-100 (PBST). Blocking was carried out using 1% goat serum for 30 mins. […] Images were acquired using a Leica DMI400B inverted fluorescence microscope linked to a DFC340FX camera.

In the next test the test system is G166 cells. Nature of the test: Astrocyte differentiation on BMP-4 exposure, G166. It counts as cell-based, human. The note with it: BMP-4 treatment. Here is the method:
as §4, §5, §6

The subject of a further test is G144 cells. The experiment in a line: Astrocyte differentiation on BMP-4 exposure, G144. It is filed as cell-based, human. The note with it: BMP-4 10 ng/ml, 7 days. The method, then: as §4, §5, §6

“Also recorded” adds a separate entry of the source. Read-outs that look alike come from different tables or passages of the source.

Turning to `c1ccc2c(c1)Nc1ccccc1S2` [10H-phenothiazine], the “killing of / effect on all GNS cell lines” value (from here on “killing of / effect”) in test [1] was “killed all GNS cell lines”.
On to `CN1CCN(c2nc3cc(C(F)(F)F)ccc3n3cccc23)CC1.O=C(O)/C=C\C(=O)O.O=C(O)/C=C\C(=O)O` [CGS 12066B], for which, in test [1], the “killing of / effect” value is reported as “killed all GNS cell lines”.
Consider `C[C@@H]1CN(CCCn2c3ccccc3c3ccccc32)C[C@H](C)N1` [Rimcazole], for which the “cell death in tumor lines” value with tumor lines (GNS cells) was “cell death”. The “killing of / effect” value in test [1] was “killed all GNS cell lines”. For the same molecule, the “cell death in fetal NS cells” value with fetal NS cells is given as “cell death”. In addition, in the test on fibroblast cells (HS27), the “effect on fibroblast cells” value was “less striking or no effect”.
In the case of `CN1CCN(CCCN2c3ccccc3Sc3ccc(C(F)(F)F)cc32)CC1` [Trifluoperazine], in test [1], the “killing of / effect” value is “killed all GNS cell lines”.
Take `CNC1CC(c2ccc(Cl)c(Cl)c2)c2ccccc21` (stereo not drawn) [indatraline]: the “cell death in tumor lines” value in the test on tumor lines (GNS cells) is “cell death”. Moreover, the “killing of / effect” value in test [1] is listed as “killed all GNS cell lines”; in test [1] (listed as Indatraline) it was “affected all GNS cells”. The effect on fibroblasts result in test [2] is reported as “no effect”. In addition, the “cell death in fetal NS cells” value in the test with fetal NS cells is on record as “cell death”. The “apoptotic cell death (TUNEL and caspase staining)” value in the test with GNS cells [3] is “dying by an apoptotic pathway; also recorded: increase in TUNEL and caspase staining”. The “effect on fibroblast cells” value with fibroblast cells (HS27) is on record as “less striking or no effect”.
Regarding `Fc1ccc([C@@H]2CCNC[C@H]2COc2ccc3c(c2)OCO3)cc1` [paroxetine], the results for the “killing of / effect” value in [1] and in [1] (listed as Paroxetine) were “killed all GNS cell lines” and “affected all GNS cells”, respectively. In addition, the effect on fibroblasts result in [2] is on record as “no effect”.
As for `CN[C@H]1CC[C@@H](c2ccc(Cl)c(Cl)c2)c2ccccc21` [sertraline], the “cell death in tumor lines” value in the test with tumor lines (GNS cells) is listed as “cell death”. The “cell death in fetal NS cells” value in the test on fetal NS cells is on record as “cell death”. In addition, the “effect on fibroblast cells” value with fibroblast cells (HS27) is recorded as “less striking or no effect”.
Take `[H]/N=C(/NCCCCC)N/N=C/c1c[nH]c2ccc(OC)cc12` [tegaserod]: in [1], the “killing of / effect” value is listed as “killed all GNS cell lines”.
Turning to “LIF: the cytokine LIF (leukemia inhibitory factor)”, the “effect on the cells in expansion culture” value in the test on GNS cells [4] was “no apparent effect”.

B1: BMP-4: inductive signal added to basal media for astrocyte differentiation (R and D systems) (protein, UniProt P12644 293-408, looked up)
Bone morphogenetic protein 4: SPKHHSQRARKKNKNCRRHSLYVDFSDVGWNDWIVAPPGYQAFYCHGDCPFPLADHLNSTNHAIVQTLVNSVNSSIPKACCVPTELSAISMLYLDEYDKVVLKNYQEMVVEGCGCR
As for B1, the “differentiation into GFAP+ cells” value with G179 cells is “majority of cells express high levels of GFAP; also recorded: efficiently differentiate into GFAP^+ cells”; in the test with G179 cells (listed as BMP), “expressed high levels of GFAP”; with G166 cells, “did differentiate”; in the test with G166 cells (listed as BMP), “could only be observed at low frequency”; with G144 cells, “majority of cells express high levels of GFAP; also recorded: efficiently differentiate into GFAP^+ cells”.
